Where two headings read alike, the source gives them in different places.
Experiments:
[1] = test system: Mouse colon cancer-derived CT-26 cells transplanted in BALB/cAnNCrj male mice; assay: In vivo experiment (2): tumor volume and weight, HVJ-E/BLM into the tumor with or without intraperitoneal CDDP; conditions: Day 21, physiological saline into the tumor
[2] = test system: mouse colon carcinoma cell CT26; conditions: 30 minutes at 37° C., counted two days later, HCl
Method: A microtube containing the sample was centrifuged at 15,000 rpm for 15 minutes at 4° C. to give the HVJ-E vector as a precipitate, and the supernatant was removed. […] Further, 2 μl of 3% Triton-X100 was added thereto to prepare a sample containing Triton-X100 at a final concentration of 0.1%, which was then left on ice for 15 minutes. Thereafter, 500 μl PBS solution was added thereto. The microtube was centrifuged at 15,000 rpm for 15 minutes at 4° C., and the supernatant was removed without removing the precipitate, and 500 μl PBS solution was added again to the precipitate. The microtube was centrifuged again at 15,000 rpm for 15 minutes at 4° C., and the supernatant was removed without removing the precipitate.
The resulting precipitate was suspended in 180 μl PBS, and the resulting sample solution was pipetted in a volume of 30 μl/microtube into 6 microtubes. Five microlitters of protamine sulfate solution prepared at 5 mg/ml and 500 μl DMEM solution (Dulbecco's modified Eagle medium) were added to each tube.
The above sample solution was added to mouse colon carcinoma cell CT26 prepared on a 6-well plate. The plate was kept for 30 minutes in an incubator at 37° C., and then the medium was exchanged with 500 μl medium (DMEM containing 10% FCS). The cells were incubated for 2 days in a CO2 incubator at 37° C. Two days later, the number of viable cells was counted to evaluate the anticancer effect.

Compound	tumor weight ([1]; CDDP 0.2 mg/body i.p.) [mg]	average tumor volume ([1]; CDDP 0.2 mg/body once intraperitoneally, 10 mice) [mm^3]	tumor weight ([1]; CDDP 0.4 mg/body i.p.) [mg]	average tumor volume ([1]; CDDP 0.4 mg/body once intraperitoneally, 3 mice) [mm^3]	number of viable cells (Mean) ([2]; 1/50 bleomycin group: bleomycin 50 μg/DMEM 500 μl/well)	number of viable cells (Mean) ([2]; 1/500 bleomycin group: bleomycin 5 μg/DMEM 500 μl/well)	number of viable cells (Mean) ([2]; 1/500 bleomycin group: bleomycin 5 μg/DMEM 500 μl/well, listed as Bleomycin)	number of viable cells (Mean) ([2]; 1/5,000 bleomycin group: bleomycin 500 ng/DMEM 500 μl/well)	number of viable cells (Mean) ([2]; 1/5,000 bleomycin group: bleomycin 500 ng/DMEM 500 μl/well, listed as Bleomycin)
[NH2][Pt]([NH2])([Cl])[Cl] [CDDP, cisplatin]	1619.79	1720.14	1164.13	1367.62	–	–	–	–	–
bleomycin HCl	–	–	–	–	81800	164,600	164600	196,800	196800
